Measurements as given in US20250268903A1, “RXFP1 AGONISTS” (BRISTOL-MYERS SQUIBB COMPANY, priority 2021, published 2025).

Molecular target: T1, human RXFP1 (Homo sapiens, UniProt Q9HBX9)
T1 construct: expressed in transfected cells
T1 sequence (Q9HBX9 1-757): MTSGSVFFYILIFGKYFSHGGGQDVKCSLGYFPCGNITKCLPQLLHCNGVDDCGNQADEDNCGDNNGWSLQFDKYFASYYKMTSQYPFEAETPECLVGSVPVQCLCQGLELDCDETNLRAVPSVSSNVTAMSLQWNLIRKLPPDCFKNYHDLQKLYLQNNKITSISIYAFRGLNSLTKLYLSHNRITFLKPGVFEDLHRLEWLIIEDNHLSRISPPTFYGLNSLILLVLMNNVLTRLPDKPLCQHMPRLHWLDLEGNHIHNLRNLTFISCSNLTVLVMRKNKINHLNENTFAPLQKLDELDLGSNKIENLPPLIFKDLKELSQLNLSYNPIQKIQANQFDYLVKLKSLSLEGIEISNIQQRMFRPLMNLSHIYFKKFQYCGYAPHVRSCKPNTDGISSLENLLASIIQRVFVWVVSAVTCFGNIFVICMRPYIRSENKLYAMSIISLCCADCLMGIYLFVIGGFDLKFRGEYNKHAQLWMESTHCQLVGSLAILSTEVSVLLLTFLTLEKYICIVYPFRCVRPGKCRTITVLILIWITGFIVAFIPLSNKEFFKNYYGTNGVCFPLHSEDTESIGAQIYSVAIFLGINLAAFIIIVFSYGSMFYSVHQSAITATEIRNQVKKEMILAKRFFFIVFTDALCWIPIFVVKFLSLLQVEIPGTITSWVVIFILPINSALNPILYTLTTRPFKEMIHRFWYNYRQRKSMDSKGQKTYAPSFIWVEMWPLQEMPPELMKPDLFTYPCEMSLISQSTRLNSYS
Experiment: hRXFP1 HEK293 cAMP assay (HTRF)
Assay type: cell-based
Settings: HEK293 cells stably expressing human RXFP1, 30 min at room temperature
Procedure: RXFP1 Cyclic Adenosine Monophosphate (cAMP) Assays. […] Cells were dissociated and suspended in assay buffer. The assay buffer was HBSS buffer (with calcium and magnesium) containing 20 mM HEPES, 0.05% BSA, and 0.5 mM IBMX. Cells (3000 cells per well, except 1500 cell per well for HEK293 cells stably expressing human RXFP1) were added to 384-well Proxiplates (Perkin-Elmer). Cells were immediately treated with test compounds in DMSO (2% final) at final concentrations in the range of 0.010 nM to 50 μM. Cells were incubated for 30 min at room temperature. The level of intracellular cAMP was determined using the HTRF HiRange cAMP assay reagent kit (Cisbio) according to manufacturer's instructions. Solutions of cryptate conjugated anti-cAMP and d2 fluorophore-labelled cAMP were made in a supplied lysis buffer separately. Upon completion of the reaction, the cells were lysed with equal volume of the d2-cAMP solution and anti-cAMP solution. […] The potency and activity of a compound to […] cAMP production was then determined by fitting to a 4-parametric logistic equation from a plot of cAMP level versus compound concentrations.

EC50 [µM] | Structure (SMILES)
0.397 | COc1ccc(CCCO)cc1C(=O)NC1C2CCC(/C2=C/C2CCCOC2)[C@@H]1C(=O)Nc1ccc(F)c(C(F)(F)F)c1 (single isomer, unassigned) [Example 171, (7Z)-N-[4-fluoro-3-(trifluoromethyl)phe-nyl]-3-[5-(3-hydroxypropyl)-2-methoxybenzamido]-7-[(oxan-3-yl)methylidene]bicy-clo[2.2.1]heptane-2-carboxamide]
0.039 | COc1ccc(CCC(C)(C)O)cc1C(=O)NC1C2CCC(/C2=C/C2CCCOC2)[C@@H]1C(=O)Nc1ccc(F)c(C(F)(F)F)c1 (single isomer, unassigned) [Example 172, (7Z)-N-[4-fluoro-3-(trifluoromethyl)phe-nyl]-3-[5-(3-hydroxy-3-methylbutyl)-2-methoxybenzamido]-7-[(oxan-3-yl)methylidene]bicy-clo[2.2.1]heptane-2-carboxamide]
0.186 | COc1ccc(CCC(C)(C)O)cc1C(=O)NC1C2CCC(/C2=C/C2CCCOC2)[C@@H]1C(=O)Nc1ccc(F)c(C(F)(F)F)c1 (single isomer, unassigned) [Example 173, (7Z)-N-[4-fluoro-3-(trifluoromethyl)phe-nyl]-3-[5-(3-hydroxy-3-methylbutyl)-2-methoxybenzamido]-7-[(oxan-3-yl)methylidene]bicy-clo[2.2.1]heptane-2-carboxamide]
0.0998 | COc1ccc(C23CCC(C(C)(C)O)(CC2)CC3)cc1C(=O)N[C@H]1[C@@H](C(=O)Nc2ccc(F)c(C(F)(F)F)c2)[C@H]2CC[C@@H]1/C2=C\C1CC1 (single isomer, unassigned) [Example 274]
2.6 | COc1ccc(C23CCC(C(C)(C)O)(CC2)CC3)cc1C(=O)N[C@H]1[C@@H](C(=O)Nc2ccc(F)c(C(F)(F)F)c2)[C@H]2CC[C@@H]1/C2=C\C1CC1 (single isomer, unassigned) [Example 276]
0.0285 | COc1ccc(C2CC2C(=O)N2CCC(O)CC2)cc1C(=O)N[C@H]1[C@@H](C(=O)Nc2ccc(F)c(C(F)(F)F)c2)[C@H]2CC[C@@H]1/C2=C\C1CC1 (single isomer, unassigned) [Example 321]
0.331 | COc1ccc(C2CC2C(=O)N2CCC(O)CC2)cc1C(=O)N[C@H]1[C@@H](C(=O)Nc2ccc(F)c(C(F)(F)F)c2)[C@H]2CC[C@@H]1/C2=C\C(F)(F)F (single isomer, unassigned) [Example 322]
0.0215 | COc1ccc(C2CC2C(=O)N2CCC(O)CC2)cc1C(=O)N[C@H]1[C@@H](C(=O)Nc2ccc(F)c(C(F)(F)F)c2)[C@H]2CC[C@@H]1/C2=C\C(F)(F)F (single isomer, unassigned) [Example 323]
0.00495 | COc1ccc(C2CC2C(=O)N2CCC(O)CC2)cc1C(=O)N[C@H]1[C@@H](C(=O)Nc2ccc(F)c(C(F)(F)F)c2)[C@H]2CC[C@@H]1/C2=C\C1CC1 (single isomer, unassigned) [Example 324]
2.94 | COc1ccc(C2CC2C(=O)N2CCC(O)CC2)cc1C(=O)N[C@H]1[C@@H](C(=O)Nc2ccc(F)c(C(F)(F)F)c2)[C@H]2CC[C@@H]1/C2=C\C(F)(F)F (single isomer, unassigned) [Example 325]
4.01 | COc1ccc(C2CC2C(=O)N2CCC(O)CC2)cc1C(=O)N[C@H]1[C@@H](C(=O)Nc2ccc(F)c(C(F)(F)F)c2)[C@H]2CC[C@@H]1/C2=C\C(F)(F)F (single isomer, unassigned) [Example 326]
0.0213 | COC(=O)C1CC(c2ccc(OC)c(C(=O)N[C@H]3[C@@H](C(=O)Nc4ccc(F)c(C(F)(F)F)c4)[C@H]4CC[C@@H]3/C4=C\C3CC3)c2)C1 (single isomer, unassigned) [Example 328]
0.112 | COC(=O)C1CC(c2ccc(OC)c(C(=O)N[C@H]3[C@@H](C(=O)Nc4ccc(F)c(C(F)(F)F)c4)[C@H]4CC[C@@H]3/C4=C\C3CC3)c2)C1 (single isomer, unassigned) [Example 332]
0.0785 | COc1ccc(C2CC3CC(O)CC32)cc1C(=O)N[C@H]1[C@@H](C(=O)Nc2ccc(F)c(C(F)(F)F)c2)[C@H]2CC[C@@H]1/C2=C\C1CC1 (single isomer, unassigned) [Example 340]
0.126 | COc1ccc(C2CC3CC(O)CC32)cc1C(=O)N[C@H]1[C@@H](C(=O)Nc2ccc(F)c(C(F)(F)F)c2)[C@H]2CC[C@@H]1/C2=C\C1CC1 (single isomer, unassigned) [Example 341]
0.0278 | COc1ccc(C2CC3CC(O)CC32)cc1C(=O)N[C@H]1[C@@H](C(=O)Nc2ccc(F)c(C(F)(F)F)c2)[C@H]2CC[C@@H]1/C2=C\C1CC1 (single isomer, unassigned) [Example 342]
0.0752 | COc1ccc(C2CC3CC(O)CC32)cc1C(=O)N[C@H]1[C@@H](C(=O)Nc2ccc(F)c(C(F)(F)F)c2)[C@H]2CC[C@@H]1/C2=C\C1CC1 (single isomer, unassigned) [Example 343]
0.034 | COc1ccc(C2CC3CC(CO)CC32)cc1C(=O)N[C@H]1[C@@H](C(=O)Nc2ccc(F)c(C(F)(F)F)c2)[C@H]2CC[C@@H]1/C2=C\C1CC1 (single isomer, unassigned) [Example 348]
0.0609 | COc1ccc(C2CC3CC(CO)CC32)cc1C(=O)N[C@H]1[C@@H](C(=O)Nc2ccc(F)c(C(F)(F)F)c2)[C@H]2CC[C@@H]1/C2=C\C1CC1 (single isomer, unassigned) [Example 349]
0.0177 | COc1ccc(C2CC3CC(CO)CC32)cc1C(=O)N[C@H]1[C@@H](C(=O)Nc2ccc(F)c(C(F)(F)F)c2)[C@H]2CC[C@@H]1/C2=C\C1CC1 (single isomer, unassigned) [Example 350]
0.0277 | COc1ccc(C2CC3CC(CO)CC32)cc1C(=O)N[C@H]1[C@@H](C(=O)Nc2ccc(F)c(C(F)(F)F)c2)[C@H]2CC[C@@H]1/C2=C\C1CC1 (single isomer, unassigned) [Example 351]
0.0499 | COc1ccc(C2CC3CC(CO)CC32)cc1C(=O)N[C@H]1[C@@H](C(=O)Nc2ccc(F)c(C(F)(F)F)c2)[C@H]2CC[C@@H]1/C2=C\C1CC1 (single isomer, unassigned) [Example 352]
0.675 | COc1ccc(N(Cc2ccccc2)Cc2ccccc2)cc1C(=O)N[C@H]1[C@@H](C(=O)Nc2ccc(F)c(C(F)(F)F)c2)[C@H]2CC[C@@H]1/C2=C\C1CC1 [Example 1, (1R,2S,3R,4R,Z)-7-(cyclopropylmethylene)-3-(5-(dibenzylamino)-2-methoxybenzamido)-N-(4-fluoro-3-(trifluoromethyl)phenyl) bicyclo[2.2.1]heptane-2-carboxamide]
0.28 | COc1ccc(Nc2ccccc2)cc1C(=O)N[C@H]1[C@@H](C(=O)Nc2ccc(F)c(C(F)(F)F)c2)[C@H]2CC[C@@H]1/C2=C\C1CC1 [Example 2, (1R,2S,3R,4R,Z)-7-(cyclopropylmethylene)-N-(4-fluoro-3-(trifluoromethyl)phenyl)-3-(2-methoxy-5-(phenylamino)benzamido) bicyclo[2.2.1]heptane-2-carboxamide]
